Reference: ChEMBL document CHEMBL6103573, “Discovery of novel thienopyridine indole derivatives as inhibitors of tubulin polymerization targeting the colchicine-binding site with potent anticancer activities” (Eur J Med Chem, 2025)
Active and inactive are the calls of the source. The rule behind the calls is not given here.

Assays:
[1] = biological target: T1, Tubulin (Homo sapiens) (UniProt P68371+Q9H4B7+P0DPH7+P68366+Q13509+Q71U36+P04350+Q3ZCM7+P07437+P68363+Q9BQE3+Q6PEY2+Q13885+Q9BVA1+Q9BUF5); assay: Inhibition of tubulin (unknown origin) polymerization assessed as decrease in fluorescence intensity at 3 micromol/L in the presence of GTP by fluorescence microplate reader; assay type: protein-complex assay; conditions: dose 3.0 µmol/L
[2] = test system: HGC-27; assay: Induction of cell cycle arrest in human HGC-27 cells assessed as accumulation of cells at G2/M phase at 2 nmol/L incubated for 24 hrs by RNase A/propidium iodide staining based flow cytometric analysis relative to control; assay type: functional
[3] = test system: MGC-803; assay: Induction of apoptosis in human MGC-803 cells assessed as late apoptotic cells at 0.5 nmol/L incubated for 48 hrs by Annexin V-FITC/propidium iodide staining based flow cytometry analysis (reference value: 2.22 %); assay type: functional
[4] = biological target: Tubulin beta (Homo sapiens) (UniProt P68371+Q9H4B7+Q13509+P04350+Q3ZCM7+P07437+Q13885+Q9BVA1+Q9BUF5+A6NNZ2); assay: Competitive binding affinity to beta-tubulin colchicine binding site in human HGC-27 cells assessed as inhibition of EBI-beta-tubulin adduct band formation at 1 umol/L preincubated for 2 hrs followed by EBI addition and measured after 2 hrs by Western blotting analysis; assay type: cell-based; conditions: dose 1.0 µmol/L, time 4.0 hrs
[5] = test system: Huh-7; assay: Antiproliferative activity against human Huh-7 cells assessed as inhibition of cell proliferation incubated for 48 hrs by MTT assay; assay type: functional, cell-based; conditions: Huh-7, 48 h
[6] = test system: MGC-803; assay: Induction of apoptosis in human MGC-803 cells assessed as nuclei shrinkage at 0.25 to 2.0 nmol/L incubated for 48 hrs by DAPI staining based analysis; assay type: functional, cell-based; conditions: dose 0.25-2 nmol/L
[7] = test system: HGC-27; assay: Antiproliferative activity against human HGC-27 cells assessed as cell viability at 0.5 to 2 nmol/L incubated for 48 hrs by MTT assay (reference value: 86 %); assay type: functional; conditions: dose 0.5-2 nmol/L, at 0.5 to 2 nM
[8] = test system: MGC-803; assay: Induction of apoptosis in human MGC-803 cells assessed as late apoptotic cells at 2.0 nmol/L incubated for 48 hrs by Annexin V-FITC/propidium iodide staining based flow cytometry analysis (reference value: 2.22 %); assay type: functional
[9] = test system: HGC-27; assay: Induction of apoptosis in human HGC-27 cells incubated for 48 hrs by Annexin V-FITC/propidium iodide staining based flow cytometry analysis; assay type: functional, cell-based; conditions: dose 0.25-2 nmol/L
[10] = test system: HGC-27; assay: Induction of apoptosis in human HGC-27 cells assessed as increase in total apoptotic rate at 2 nmol/L incubated for 48 hrs by Annexin V-FITC/propidium iodide staining based flow cytometry analysis relative to control; assay type: functional
[11] = biological target: T1, Tubulin (Homo sapiens); assay: Disruption of microtubule network in human HGC-27 cells assessed as disruption of mitosis at 0.25 to 2.0 nmol/L incubated for 24 hrs by DAPI staining based fluorescence microscopic analysis; assay type: cell-based; conditions: dose 0.25-2 nmol/L
[12] = test system: MDA-MB-231; assay: Antiproliferative activity against human MDA-MB-231 cells assessed as inhibition of cell proliferation incubated for 48 hrs by MTT assay; assay type: functional, cell-based; conditions: MDA-MB-231, 48 h
[13] = test system: MGC-803; assay: Induction of apoptosis in human MGC-803 cells assessed as appearance of round cells at 0.25 to 2.0 nmol/L incubated for 48 hrs by bright field microscopic analysis; assay type: functional, cell-based; conditions: dose 0.25-2 nmol/L
[14] = test system: MGC-803; assay: Inhibition of colony formation in human MGC-803 cells incubated for 7 days by crystal violet staining based colony formation assay; assay type: functional, cell-based; conditions: dose 0.1-0.5 nmol/L, time 7.0 day
[15] = test system: MGC-803; assay: Antiproliferative activity against human MGC-803 cells assessed as inhibition of cell proliferation incubated for 48 hrs by MTT assay; assay type: functional, cell-based; conditions: MGC-803, 48 h
[16] = test system: MGC-803; assay: Inhibition of colony formation in human MGC-803 cells at 0.5 nmol/L incubated for 7 days by crystal violet staining based colony formation assay relative to control; assay type: functional; conditions: MGC-803, 168 h, time 7 day
[17] = test system: HGC-27; assay: Induction of cell cycle arrest at G2 phase in human HGC-27 cells assessed as downregulation of Cyclin B1 level at 0.25 to 2.0 nmol/L measured after 48 hrs by Western blot analysis; assay type: functional, cell-based; conditions: dose 0.25-2 nmol/L
[18] = test system: HGC-27; assay: Induction of cell cycle arrest in human HGC-27 cells assessed as downregulation of Cdc25c level measured after 48 hrs by Western blot analysis; assay type: functional, cell-based; conditions: dose 0.25-2 nmol/L
[19] = test system: HUVEC; assay: Anti-angiogenesis activity in HUVEC cells assessed as reduction in cell viability by measuring survival rate at 2 nmol/L incubated for 48 hrs by MTT assay relative to control; assay type: functional; conditions: Homo sapiens, read-out: Survival
[20] = test system: MGC-803; assay: Induction of apoptosis in human MGC-803 cells assessed as early apoptotic cells at 1.0 nmol/L incubated for 48 hrs by Annexin V-FITC/propidium iodide staining based flow cytometry analysis (reference value: 0.83 %); assay type: functional
[21] = test system: HGC-27; assay: Induction of apoptosis in human HGC-27 cells assessed as early apoptotic cells at 0.5 nmol/L incubated for 48 hrs by Annexin V-FITC/propidium iodide staining based flow cytometry analysis (reference value: 2.04 %); assay type: functional
[22] = biological target: T1, Tubulin (Homo sapiens); assay: Disruption of microtubule network in human HGC-27 cells assessed as irregular cellular morphology at 0.25 to 2.0 nmol/L incubated for 24 hrs by DAPI staining based fluorescence microscopic analysis; assay type: cell-based; conditions: dose 0.25-2 nmol/L
[23] = test system: HUVEC; assay: Anti-vascular activity in HUVEC cells assessed as reduction in capillary-like tubules with multi-center junctions incubated for 5 hrs by Matrigel based inverted microscopic analysis; assay type: functional, cell-based; conditions: Homo sapiens, dose 0.5-2 nmol/L
[24] = test system: MGC-803; assay: Induction of apoptosis in human MGC-803 cells assessed as late apoptotic cells at 0.25 nmol/L incubated for 48 hrs by Annexin V-FITC/propidium iodide staining based flow cytometry analysis (reference value: 2.22 %); assay type: functional
[25] = test system: HGC-27; assay: Induction of apoptosis in human HGC-27 cells assessed as cell contraction at 0.25 to 2.0 nmol/L incubated for 48 hrs by bright field microscopic analysis; assay type: functional, cell-based; conditions: dose 0.25-2 nmol/L
[26] = test system: HGC-27; assay: Antiproliferative activity against human HGC-27 cells assessed as reduction in cell viability at 0.25 to 2.0 nmol/L by MTT assay; assay type: functional, cell-based; conditions: dose 0.25-2 nmol/L, time 6-48 hrs
[27] = biological target: T1, Tubulin (Homo sapiens); assay: Disruption of microtubule network in human MGC-803 cells assessed as appearance of multinucleation at 0.25 to 2.0 nmol/L incubated for 24 hrs by DAPI staining based fluorescence microscopic analysis; assay type: cell-based; conditions: dose 0.25-2 nmol/L
[28] = test system: MGC-803; assay: Induction of apoptosis in human MGC-803 cells assessed as increase in dead to live cells ratio at 0.25 to 2.0 nmol/L incubated for 48 hrs by Calcein-AM/PI staining based analysis; assay type: functional, cell-based; conditions: dose 0.25-2 nmol/L
[29] = test system: HGC-27; assay: Induction of apoptosis in human HGC-27 cells assessed as nuclei shrinkage at 0.25 to 2.0 nmol/L incubated for 48 hrs by DAPI staining based analysis; assay type: functional, cell-based; conditions: dose 0.25-2 nmol/L
[30] = test system: MGC-803; assay: Induction of cell cycle arrest in human MGC-803 cells assessed as downregulation of Wee1 level measured after 48 hrs by Western blot analysis; assay type: functional, cell-based; conditions: dose 0.25-2 nmol/L
[31] = test system: MCF7; assay: Antiproliferative activity against human MCF7 cells assessed as inhibition of cell proliferation incubated for 48 hrs by MTT assay; assay type: functional, cell-based; conditions: MCF7, 48 h
[32] = test system: HGC-27; assay: Induction of apoptosis in human HGC-27 cells assessed as late apoptotic cells at 2.0 nmol/L incubated for 48 hrs by Annexin V-FITC/propidium iodide staining based flow cytometry analysis (reference value: 3.70 %); assay type: functional

With `CN(c1ccc2c(ccn2C)c1)c1nc(N2CCCC2)nc2sccc12` the inhibition [1] was “Active”, the Activity [2] was 43.9% and the Activity [3] was 2.84%. The Activity [4] was “Active; Stronger Affinity Observed”, the IC50 [5] was 2.09 nM and the Activity [6] was “Active”. The Activity [7] was 38%, the Activity [8] was 8.06% and the Activity [9] was “Dose-dependent-effect”. For the same compound, the Activity [10] was 14%, the Activity [11] was “Active” and the IC50 [12] was 2.58 nM. For the same compound, the Activity [13] was “Active”, the inhibition [14] was “Dose-dependent-effect” and the IC50 [15] was 1.61 nM. For the same compound, the inhibition at 0.0005 µM [16] was over 90%, the Activity [17] was “Active” and the Activity [18] was “Dose-dependent-effect”. It also gave a viability at 0.002 µM [19] of 28.3%, an Activity [20] of 16.83% and an Activity [21] of 4.64%. The Activity [22] was “Active”, the Activity [23] was “Dose-dependent-effect” and the Activity [24] was 3.42%. The Activity [25] was “Active”, the Activity [26] was “Time-dependent-effect” and the Activity [27] was “Active”. For the same compound, the Activity [28] was “Active”, the Activity [29] was “Active” and the Activity [30] was “Dose-dependent-effect”. It also gave an IC50 [31] of 1.85 nM and an Activity [32] of 5.64%.
